Reference: BindingDB's records for doi:10.1021/jm00058a003 (Upjohn Laboratories, 1993)
pKi: −log10 of the molar value.

molecular target: 5-HT1A receptor (Bos taurus); assay: In vitro binding affinity towards [3H]8-OH-DPAT-labeled 5-hydroxytryptamine 1A receptor sites in bovine hippocampus.

SMILES | pKi
CCCN[C@@H]1CCc2cccc(OC)c2[C@@H]1CCC [(8-Methoxy-1-propyl-1,2,3,4-tetrahydro-naphthalen-2-yl)-propyl-amine] | 7.96
C=CCN[C@@H]1CCc2ccccc2[C@@H]1CC=C [Allyl-(1-allyl-1,2,3,4-tetrahydro-naphthalen-2-yl)-amine] | 6.82
C=CC[C@@H]1c2c(cccc2OC)CC[C@H]1NCC1CC1 (relative stereo) [(trans)-(1-Allyl-8-methoxy-1,2,3,4-tetrahydro-naphthalen-2-yl)-cyclopropylmethyl-amine] | 8.39
C=CC[C@H]1c2c(cccc2OC)CC[C@H]1NCC1CC1 [(1-Allyl-8-methoxy-1,2,3,4-tetrahydro-naphthalen-2-yl)-cyclopropylmethyl-amine] | 8.54
C=CC[C@H]1c2c(cccc2OC)CC[C@H]1NCCC [(1-Allyl-8-methoxy-1,2,3,4-tetrahydro-naphthalen-2-yl)-propyl-amine] | 8.74
C=CCN[C@@H]1CCc2cccc(OC)c2[C@@H]1CC1CC1 [Allyl-(1-cyclopropylmethyl-8-methoxy-1,2,3,4-tetrahydro-naphthalen-2-yl)-amine] | 8.03
C=CCN[C@@H]1CCc2cccc(O)c2[C@@H]1CC=C [8-Allyl-7-allylamino-5,6,7,8-tetrahydro-naphthalen-1-ol] | 9.00
C=CC[C@H]1c2c(cccc2OC)CC[C@H]1N(CCC)CCC [(1-Allyl-8-methoxy-1,2,3,4-tetrahydro-naphthalen-2-yl)-dipropyl-amine] | 8.20
C=CCN[C@@H]1CCc2cccc(OC)c2[C@H]1CC1CC1 (relative stereo) [(trans)-Allyl-(1-cyclopropylmethyl-8-methoxy-1,2,3,4-tetrahydro-naphthalen-2-yl)-amine] | 7.82
CCCN[C@@H]1CCc2cccc(OC)c2[C@@H]1CO [(8-Methoxy-2-propylamino-1,2,3,4-tetrahydro-naphthalen-1-yl)-methanol] | 8.27
CCCN[C@@H]1CCc2cccc(OC)c2[C@H]1CC1CC1 (relative stereo) [(trans)-(1-Cyclopropylmethyl-8-methoxy-1,2,3,4-tetrahydro-naphthalen-2-yl)-propyl-amine] | 8.03
C=CC[C@H]1c2ccccc2CC[C@H]1NCCC [(1-Allyl-1,2,3,4-tetrahydro-naphthalen-2-yl)-propyl-amine] | 6.76
C=CC[C@H]1c2c(O)cccc2CC[C@H]1NCCC [8-Allyl-7-propylamino-5,6,7,8-tetrahydro-naphthalen-1-ol] | 9.30
C=CC[C@H]1c2cccc(OC)c2CC[C@H]1NCCC [(1-Allyl-5-methoxy-1,2,3,4-tetrahydro-naphthalen-2-yl)-propyl-amine] | < 6.00
C=CC[C@@H]1c2cccc(OC)c2CC[C@H]1NCCC (relative stereo) [(trans)-(1-Allyl-5-methoxy-1,2,3,4-tetrahydro-naphthalen-2-yl)-propyl-amine] | < 6.00
CCCN(C)[C@@H]1CCc2cccc(OC)c2[C@@H]1CO [[8-Methoxy-2-(methyl-propyl-amino)-1,2,3,4-tetrahydro-naphthalen-1-yl]-methanol] | 8.30
C=CC[C@@H]1c2c(cccc2OC)CC[C@H]1NCCC (relative stereo) [(trans)-(1-Allyl-8-methoxy-1,2,3,4-tetrahydro-naphthalen-2-yl)-propyl-amine] | 7.72
C=CCN[C@@H]1CCc2ccccc2[C@H]1CC=C (relative stereo) [(trans)-Allyl-(1-allyl-1,2,3,4-tetrahydro-naphthalen-2-yl)-amine] | < 6.00
C=CC[C@@H]1c2ccccc2CC[C@H]1NCCC (relative stereo) [(trans)-(1-Allyl-1,2,3,4-tetrahydro-naphthalen-2-yl)-propyl-amine] | < 6.00
CCCN[C@@H]1CCc2cccc(OC)c2[C@@H]1CC1CC1 [(1-Cyclopropylmethyl-8-methoxy-1,2,3,4-tetrahydro-naphthalen-2-yl)-propyl-amine] | 7.82
